Like-named read-outs stand apart in the source and are kept apart here.
Columns and labels:
Type in all cases: biochemical
[1] = target: T1, HTS derived from MM resistant strain WMM9 (arginine 27 changed to cysteine) (Escherichia coli, UniProt P07623, R27C); details: for HTS activity in the presence of inhibitor: WMM9, no addition 5.0; for Inhibition of HTS activity (in words): WMM9 strain, compared with wild strain
T1 construct: The HTS activity in the crude enzyme extract was measured; endogenous in cells; host or cells: E. coli WMM9 (spontaneous MM-resistant mutant of W3110), crude enzyme extract
Method: (§1) In order to confirm the effect of the metJ deletion by the recombination, a crude enzyme extract was prepared from the cells, and the activities of HTS and cystathionine synthase were measured. The W3110 strain and the WΔJ strain were each inoculated to 2 ml of LB medium, and cultured at 37° C. overnight. 1 ml of the medium was centrifuged at 5,000 rpm for 10 minutes, and the cells were washed twice with 0.9% saline. The obtained cell were suspended in 1 ml of 0.9% saline, 0.5 ml of which was inoculated to 50 ml of Davis-Mingioli minimal medium (Davis B. D., and Mingioli, E. S., J. Bacteriol., 60, 17-28 (1950)) containing 5 mM L-methionine. The cells were cultured at 37° C. for 24 hours, then the medium was centrifuged at 8,000 rpm for 10 minutes, and the cells were washed twice with 0.9% saline. The cells were suspended in 3 ml of 50 mM potassium phosphate buffer (pH 7.5) containing 1 mM dithiothreitol. This suspension was subjected to a cell disruption treatment at 4° C. with a power of 150 W for 5 minutes by using an ultrasonicator (Kubota Co.). The sonicated suspension was centrifuged at 15,000 rpm for 30 minutes, and the supernatant was desalted in a Sephadex G-50 column (Pharmacia) to obtain a crude enzyme extract. The HTS activity and the cystathionine synthase activity in the crude enzyme extract were measured.
(§2) As for the HTS activity, 5 μl of the crude enzyme extract was added to a reaction mixture comprising 0.1 M potassium phosphate (pH 7.5), 1 mM succinyl-coenzyme A (Sigma), 0.2 nM DL-[^14C]homoserine (Muromachi Chemical Industry), and 0.2 mM L-homoserine to obtain a volume of 50 μl, and allowed to react at 30° C. for 10 minutes. 1 μl of the reaction mixture was spotted on a cellulose plate (Merck), and developed with a mixed solvent containing acetone, butanol, water, and diethylamine at a ratio of 10:10:5:2. After the plate was air-dried, autoradiography was performed by using an image analyzer (Fuji Photo Film).
(§3) Chromosomal DNA was prepared from these resistant strains. PCR was performed by using each chromosomal DNA as a template and primers having the sequences represented as SEQ ID NOS: 21 and 22 to amplify the metA gene. The nucleotide sequence of each amplification fragment was determined by using primers for amplification of which nucleotide sequences are represented as SEQ ID NOS: 21 and 22, and primers having the sequences represented as SEQ ID NOS: 23 and 24.
(§4) The cells were washed twice with 1 ml of 0.9% saline, and suspended in 1 ml of 0.9% saline, 0.5 ml of which was inoculated to 50 ml of minimal medium and cultured at 37° C. for one day. The medium was centrifuged at 8,000 rpm for 10 minutes, and the cells were washed twice with 1 ml of 0.9% saline. The obtained cells were suspended in 3 ml of 50 mM potassium phosphate buffer (pH 7.5) containing 1 mM dithiothreitol, and a crude enzyme extract was obtained in the same manner as in Example 1. The HTS activity in the crude enzyme extract was measured with the reaction composition mentioned in Example 1 in the presence of an inhibitor.

[2] = target: T2, HTS derived from MM resistant strain WMM4 (296th isoleucine changed to serine) (Escherichia coli, UniProt P07623, I296S); details: for HTS activity in the presence of inhibitor: WMM4, no addition 4.5; for Inhibition of HTS activity (in words): WMM4 strain, compared with wild strain
T2 construct: The HTS activity in the crude enzyme extract was measured; endogenous in cells; host or cells: E. coli WMM4 (spontaneous MM-resistant mutant of W3110), crude enzyme extract
Method: as §1, §2, §3, §4

[3] = target: T3, HTS derived from MM resistant strain WMM7 (IS2 insertion, proline 298 and subsequent residues changed) (Escherichia coli, UniProt P07623); details: no addition 0.0 (activity undetectable)
T3 construct: The HTS activity in the crude enzyme extract was measured; endogenous in cells; host or cells: E. coli WMM7 (MM-resistant mutant of W3110 with IS2 in metA), crude enzyme extract
Method: as §1, §2, §3, §4

[4] = target: T4, HTS derived from MM resistant strain WMM5 (proline 298 changed to leucine) (Escherichia coli, UniProt P07623, P298L); details: for HTS activity in the presence of inhibitor: WMM5, no addition 4.5; for Inhibition of HTS activity (in words): WMM5 strain, compared with wild strain
T4 construct: The HTS activity in the crude enzyme extract was measured; endogenous in cells; host or cells: E. coli WMM5 (spontaneous MM-resistant mutant of W3110), crude enzyme extract
Method: as §1, §2, §3, §4

[5] = target: T5, homoserine transsuccinylase (HTS) of W3110 strain (wild-type) (Escherichia coli, UniProt P07623); test: HTS activity in crude enzyme extract in the presence of inhibitors, W3110 (wild strain); details: no addition 22.3
T5 construct: The HTS activity in the crude enzyme extract was measured; endogenous in cells; host or cells: E. coli W3110 (wild strain), desalted crude enzyme extract
Method: as §1, §2, §4

T2 sequence (P07623 whole entry I296S): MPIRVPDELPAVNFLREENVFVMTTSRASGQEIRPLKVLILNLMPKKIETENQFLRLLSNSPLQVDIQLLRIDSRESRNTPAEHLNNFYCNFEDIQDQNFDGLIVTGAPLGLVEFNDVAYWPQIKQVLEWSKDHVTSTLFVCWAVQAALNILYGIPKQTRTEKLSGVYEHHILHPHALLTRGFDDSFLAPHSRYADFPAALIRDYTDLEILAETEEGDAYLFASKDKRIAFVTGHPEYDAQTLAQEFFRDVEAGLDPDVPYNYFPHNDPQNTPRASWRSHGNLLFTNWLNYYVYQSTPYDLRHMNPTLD
T4 sequence (P07623 whole entry P298L): as the sequence (P07623 whole entry I296S) above, with S296I, P298L counted along it
T1 sequence (P07623 whole entry R27C): as the sequence (P07623 whole entry I296S) above, with R27C, S296I counted along it
T5 sequence (P07623 whole entry): as the sequence (P07623 whole entry I296S) above, with S296I counted along it
T3 sequence (P07623 other isoform, or with tags, fused parts or gaps, stated change not applied): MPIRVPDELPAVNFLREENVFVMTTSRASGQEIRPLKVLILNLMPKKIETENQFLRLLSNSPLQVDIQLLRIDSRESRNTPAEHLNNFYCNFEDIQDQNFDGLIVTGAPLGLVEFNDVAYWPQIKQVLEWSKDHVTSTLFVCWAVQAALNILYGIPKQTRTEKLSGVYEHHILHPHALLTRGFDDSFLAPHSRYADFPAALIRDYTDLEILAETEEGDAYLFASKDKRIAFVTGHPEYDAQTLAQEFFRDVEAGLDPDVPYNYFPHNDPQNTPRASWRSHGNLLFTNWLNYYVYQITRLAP

| Compound | HTS activity in the presence of inhibitor ([1]; 0.1 mM inhibitor) [mmol/min/mg protein] | HTS activity in the presence of inhibitor ([1]; 1 mM inhibitor) [mmol/min/mg protein] | Inhibition of HTS activity (in words) [1] | HTS activity in the presence of inhibitor ([2]; 0.1 mM inhibitor) [mmol/min/mg protein] | HTS activity in the presence of inhibitor ([2]; 1 mM inhibitor) [mmol/min/mg protein] | Inhibition of HTS activity (in words) [2] | HTS activity in the presence of inhibitor ([3]; 0.1 mM inhibitor) [mmol/min/mg protein] | HTS activity in the presence of inhibitor ([3]; 1 mM inhibitor) [mmol/min/mg protein] | HTS activity in the presence of inhibitor ([4]; 0.1 mM inhibitor) [mmol/min/mg protein] | HTS activity in the presence of inhibitor ([4]; 1 mM inhibitor) [mmol/min/mg protein] | Inhibition of HTS activity (in words) [4] | HTS activity in the presence of inhibitor ([5]; 0.1 mM inhibitor) [mmol/min/mg protein] | HTS activity in the presence of inhibitor ([5]; 1 mM inhibitor) [mmol/min/mg protein] |
| --- | --- | --- | --- | --- | --- | --- | --- | --- | --- | --- | --- | --- | --- |
| CSCC[C@H](N)C(=O)O [Met, L-methionine] | 2.5 | 2.2 | reduced considerably | 4.5 | 4.0 | reduced considerably | 0.0 | 0.0 | 4.2 | 4.0 | reduced considerably | 14.3 | 0.8 |
| C[S+](CC[C@H](N)C(=O)[O-])C[C@H]1O[C@@H](n2cnc3c(N)ncnc32)[C@H](O)[C@@H]1O (stereo partly drawn) [SAM, S-adenosylmethionine] | 1.1 | 0.5 | hardly canceled | 4.6 | 2.6 | tendency of cancellation | 0.0 | 0.0 | 3.6 | 3.3 | tendency of cancellation | 17.0 | 3.0 |
| CSCCC(C)(N)C(=O)O (racemic) [MM, α-methyl-DL-methionine] | 4.9 | 2.7 | canceled | 4.1 | 4.6 | canceled | 0.0 | 0.0 | 4.6 | 4.8 | canceled | 18.6 | 7.0 |

From patent US7611873B1, “Method for producing L-methionine by fermentation” (priority 1998, dated 2009)
